Like-named read-outs stand apart in the source and are kept apart here.
Tests used:
[1] = tested on: mixed lymphocyte reaction; conditions: mouse; cited from earlier work
[2] = tested on: mixed lymphocyte reaction; conditions: guinea pig; cited from earlier work
[3] = tested on: mixed lymphocyte reaction; conditions: rat; cited from earlier work
[4] = Blood pressure and heart rate during infusion; type: in vivo, Yucatan mini-pig; conditions: during infusion of 25 µg over 2.5 h
Method: A Yucatan mini-pig received 25 µg of margatoxin in 30 ml of vehicle (5% autologous serum in 1:1 saline to PBS solution) over 2.5 h. […] Margatoxin was undetectable in the plasma in 24 h. Plasma level of MgTX was determined in a competition binding assay, by its inhibition of ^125I-labeled MgTX binding to Kv1.3 channels present in isolated plasma membranes. […] Similar pharmokinetic study was performed six times, with good correlations between high plasma levels of margatoxin and the lower response to PMA/ION. Yucatan mini-pigs receiving vehicle had no significant fluctuation of responses to PMA/ION. Therefore, this ex vivo test provides an assessment of the in vivo biological effect of margatoxin and can also be used to study the immunosuppressant effects of other ion channel blockers.

[5] = tested on: mixed lymphocyte reaction; conditions: rabbit; cited from earlier work
[6] = 25 µg infused over 2.5 h
[7] = tested on: mixed lymphocyte reaction; assay: Mixed lymphocyte reaction (pig); type: cell-based
Source text: Mini-swine was recently selected to validate the concept that blocking the voltage activated K+ channels (Kv1.3) is a target for immunomodulation.

[8] = molecular target: T1, Kv1.3 channels of the pig T cells (Sus scrofa, UniProt A0A5G2QN06); conditions: electrophysiological analyses, unpublished communication from Reid Leonard; cited from earlier work
T1 construct: endogenous in cells; host or cells: pig T cells
T1 sequence (A0A5G2QN06 1-588): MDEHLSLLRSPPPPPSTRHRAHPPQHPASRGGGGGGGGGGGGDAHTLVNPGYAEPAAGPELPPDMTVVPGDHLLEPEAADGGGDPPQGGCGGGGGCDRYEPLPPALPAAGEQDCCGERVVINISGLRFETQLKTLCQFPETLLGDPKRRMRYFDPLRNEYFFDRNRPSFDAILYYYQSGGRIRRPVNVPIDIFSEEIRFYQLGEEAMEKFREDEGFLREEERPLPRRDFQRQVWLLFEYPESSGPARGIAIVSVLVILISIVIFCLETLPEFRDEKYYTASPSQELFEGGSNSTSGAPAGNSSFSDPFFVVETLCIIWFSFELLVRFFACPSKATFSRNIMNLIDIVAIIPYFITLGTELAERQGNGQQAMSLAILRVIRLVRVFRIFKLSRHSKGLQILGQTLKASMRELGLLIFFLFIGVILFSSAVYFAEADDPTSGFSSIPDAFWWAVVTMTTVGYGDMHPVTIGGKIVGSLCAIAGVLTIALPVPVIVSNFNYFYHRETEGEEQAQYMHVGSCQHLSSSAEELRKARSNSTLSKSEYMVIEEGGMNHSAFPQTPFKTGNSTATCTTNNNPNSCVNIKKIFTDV

pig mononuclear cells = assay: In vitro PMA/ionomycin induced proliferation of mononuclear cells ([3H]thymidine incorporation); type: cell-based
mononuclear cells = assay: Ex vivo PMA/ionomycin-induced proliferation of mononuclear cells after in vivo infusion; parameters: species or system Yucatan mini-pig; conditions: 25 µg in 30 ml of vehicle infused over 2.5 h

**Q.** Which results are given for Margatoxin?
**A.** inhibition of the mixed lymphocyte reaction [1]: not inhibited; inhibition of the mixed lymphocyte reaction [2]: not inhibited; inhibition of the mixed lymphocyte reaction [3]: not inhibited; rise in blood pressure [4]: no significant rise; rise in heart rate [4]: no significant rise; inhibition of the mixed lymphocyte reaction [5]: not inhibited; Plasma level ([6]; in 24 h): undetectable; half-life ([6]; plasma): about 2 h; Cmax ([6]; read-out: Plasma level, peak, at the end of infusion): 0.6 nM; concentration ([6]; read-out: Plasma level, at 4.5 h post-infusion): 0.1 nM; inhibition of the mixed lymphocyte reaction [7]: inhibit; block of the Kv1.3 channels [8]: block; PMA/ionomycin (ION) induced proliferation (pig mononuclear cells; pig mononuclear cells, in vitro): equally inhibited; suppression of the proliferative response to PMA/ION (pig mononuclear cells; whole blood spiked with Margatoxin): significant suppression; Unresponsiveness to PMA/ION, duration sustained post-infusion (mononuclear cells): 4.5 h; Unresponsiveness to PMA/ION, time of maximum (mononuclear cells): maximal at the end of infusion
